This passage reports IC50 results from ChEMBL document CHEMBL5233227, “Allosteric inhibitors of the STAT3 signaling pathway” (Eur J Med Chem, 2020).

The target in the experiment is Signal transducer and activator of transcription 3 (Homo sapiens, UniProt P40763). In words: Inhibition of human STAT3 expressed in human HepG2 cells incubated for 1.5 hrs by luciferase assay. Format: cell-based.
Chain of Signal transducer and activator of transcription 3 (P40763 whole entry): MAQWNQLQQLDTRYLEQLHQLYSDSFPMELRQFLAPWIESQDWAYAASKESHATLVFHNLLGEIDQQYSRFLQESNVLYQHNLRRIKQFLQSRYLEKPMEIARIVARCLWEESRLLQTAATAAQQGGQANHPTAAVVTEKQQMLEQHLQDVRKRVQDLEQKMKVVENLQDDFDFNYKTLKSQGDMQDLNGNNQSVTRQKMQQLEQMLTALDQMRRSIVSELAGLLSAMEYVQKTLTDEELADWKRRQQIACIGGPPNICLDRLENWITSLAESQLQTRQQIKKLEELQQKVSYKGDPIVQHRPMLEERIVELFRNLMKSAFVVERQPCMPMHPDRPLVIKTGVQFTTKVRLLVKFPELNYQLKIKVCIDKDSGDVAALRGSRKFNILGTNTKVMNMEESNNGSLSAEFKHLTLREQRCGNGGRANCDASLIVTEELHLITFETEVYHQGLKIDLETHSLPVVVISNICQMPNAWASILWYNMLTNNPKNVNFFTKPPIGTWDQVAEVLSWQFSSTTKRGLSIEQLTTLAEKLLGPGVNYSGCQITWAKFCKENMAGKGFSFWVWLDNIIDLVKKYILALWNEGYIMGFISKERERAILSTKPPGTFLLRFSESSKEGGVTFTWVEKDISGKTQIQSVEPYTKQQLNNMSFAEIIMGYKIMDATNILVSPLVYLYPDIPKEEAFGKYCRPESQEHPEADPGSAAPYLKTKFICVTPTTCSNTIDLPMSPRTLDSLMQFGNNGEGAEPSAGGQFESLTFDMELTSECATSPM

What is called IC50 is the concentration that inhibits the measured activity by half. As to `CC(CO)C1OC(=O)C=C2C13OC3CC13COC(=O)C1(C)CC(O)CC23C` (stereo unspecified), the IC50 was 200 nM.
